Assays:
Assay in all cases: biochemical
Parameters in all cases: KinomeScan competition binding panel (DiscoveRx), percent of control at 1 uM
Settings in all cases: read-out: Percent Control
CTK = target: T1, CTK (Homo sapiens, UniProt P42679)
T1 construct: gene MATK
Summary of the method: (§1)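 KinomeScan technology used to profile binding across a panel of 456 kinases and mutants.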

DMPK2 = target: T2, DMPK2 (Homo sapiens, UniProt Q6DT37)
T2 construct: gene CDC42BPG
Summary of the method: as §1

AAK1 = AAK1 (Homo sapiens, UniProt Q2M2I8)
Summary of the method: as §1

MLK3 = target: T3, MLK3 (Homo sapiens, UniProt Q16584)
T3 construct: gene MAP3K11
Summary of the method: as §1

MAP3K15 = MAP3K15 (Homo sapiens, UniProt Q6ZN16)
Summary of the method: as §1

HIPK1 = HIPK1 (Homo sapiens, UniProt Q86Z02)
Summary of the method: as §1

EGFR(L858R,T790M) = EGFR(L858R,T790M) (Homo sapiens, UniProt P00533, L858R/T790M)
Summary of the method: as §1

PLK3 = PLK3 (Homo sapiens, UniProt Q9H4B4)
Summary of the method: as §1

ERK5 = target: T4, ERK5 (Homo sapiens, UniProt Q13164)
T4 construct: gene MAPK7
Summary of the method: as §1

JNK1 = target: T5, JNK1 (Homo sapiens, UniProt P45983)
T5 construct: gene MAPK8
Summary of the method: as §1

ADCK3 = target: T6, ADCK3 (Homo sapiens, UniProt Q8NI60)
T6 construct: gene COQ8A
Summary of the method: as §1

CDC2L1 = target: T7, CDC2L1 (Homo sapiens, UniProt P21127)
T7 construct: gene CDK11B
Summary of the method: as §1

QSK = target: T8, QSK (Homo sapiens, UniProt Q9Y2K2)
T8 construct: gene SIK3
Summary of the method: as §1

PLK4 = PLK4 (Homo sapiens, UniProt O00444)
Summary of the method: as §1

MET = MET (Homo sapiens, UniProt P08581)
Summary of the method: as §1

ERBB3 = ERBB3 (Homo sapiens, UniProt P21860)
Summary of the method: as §1

[1] = target: T9, RSK1(Kin.Dom.2-C-terminal) (Homo sapiens, UniProt Q15418)
T9 construct: gene RPS6KA1; Kin.Dom.2-C-terminal
Summary of the method: as §1

PAK3 = PAK3 (Homo sapiens, UniProt O75914)
Summary of the method: as §1

GSK3B = GSK3B (Homo sapiens, UniProt P49841)
Summary of the method: as §1

EGFR(G719S) = EGFR(G719S) (Homo sapiens, UniProt P00533, G719S)
Summary of the method: as §1

NEK9 = NEK9 (Homo sapiens, UniProt Q8TD19)
Summary of the method: as §1

STK16 = STK16 (Homo sapiens, UniProt O75716)
Summary of the method: as §1

SNRK = SNRK (Homo sapiens, UniProt Q9NRH2)
Summary of the method: as §1

DLK = target: T10, DLK (Homo sapiens, UniProt Q12852)
T10 construct: gene MAP3K12
Summary of the method: as §1

PRKX = PRKX (Homo sapiens, UniProt P51817)
Summary of the method: as §1

T8 sequence (Q9Y2K2 whole entry): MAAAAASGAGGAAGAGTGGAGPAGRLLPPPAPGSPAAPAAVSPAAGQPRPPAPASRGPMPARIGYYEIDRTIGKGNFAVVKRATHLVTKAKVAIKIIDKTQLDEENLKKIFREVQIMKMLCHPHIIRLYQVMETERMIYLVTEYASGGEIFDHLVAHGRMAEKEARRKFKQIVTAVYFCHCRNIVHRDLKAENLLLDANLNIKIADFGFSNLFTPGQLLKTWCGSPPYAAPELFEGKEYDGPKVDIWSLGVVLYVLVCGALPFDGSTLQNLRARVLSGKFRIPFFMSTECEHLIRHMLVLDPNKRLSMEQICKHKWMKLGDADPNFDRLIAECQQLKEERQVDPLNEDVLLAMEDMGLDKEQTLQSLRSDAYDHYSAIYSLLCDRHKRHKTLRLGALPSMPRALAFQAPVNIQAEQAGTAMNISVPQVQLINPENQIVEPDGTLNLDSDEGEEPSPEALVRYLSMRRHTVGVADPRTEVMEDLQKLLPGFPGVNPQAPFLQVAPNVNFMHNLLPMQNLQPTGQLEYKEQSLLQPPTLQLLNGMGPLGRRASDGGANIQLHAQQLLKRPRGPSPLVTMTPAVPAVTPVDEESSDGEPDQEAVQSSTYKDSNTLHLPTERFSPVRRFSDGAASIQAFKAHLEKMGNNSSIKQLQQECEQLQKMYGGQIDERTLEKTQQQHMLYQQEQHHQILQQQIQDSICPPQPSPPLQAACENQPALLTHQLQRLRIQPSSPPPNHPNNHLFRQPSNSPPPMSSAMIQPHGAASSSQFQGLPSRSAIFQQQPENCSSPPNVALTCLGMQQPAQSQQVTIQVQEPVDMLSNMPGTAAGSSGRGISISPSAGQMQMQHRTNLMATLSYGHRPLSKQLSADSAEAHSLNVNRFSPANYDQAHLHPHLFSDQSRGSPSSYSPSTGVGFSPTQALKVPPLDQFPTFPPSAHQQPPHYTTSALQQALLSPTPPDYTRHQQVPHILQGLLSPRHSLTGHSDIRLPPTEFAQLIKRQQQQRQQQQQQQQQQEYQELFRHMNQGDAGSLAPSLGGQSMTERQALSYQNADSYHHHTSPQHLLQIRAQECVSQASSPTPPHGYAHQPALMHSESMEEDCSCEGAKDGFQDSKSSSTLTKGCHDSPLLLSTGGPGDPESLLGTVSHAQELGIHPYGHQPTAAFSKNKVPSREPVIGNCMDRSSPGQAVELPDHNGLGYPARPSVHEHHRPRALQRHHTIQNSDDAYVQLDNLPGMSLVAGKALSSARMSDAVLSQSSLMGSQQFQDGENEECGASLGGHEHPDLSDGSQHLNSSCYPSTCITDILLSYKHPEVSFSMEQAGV
PAK3, sequence (O75914 whole entry): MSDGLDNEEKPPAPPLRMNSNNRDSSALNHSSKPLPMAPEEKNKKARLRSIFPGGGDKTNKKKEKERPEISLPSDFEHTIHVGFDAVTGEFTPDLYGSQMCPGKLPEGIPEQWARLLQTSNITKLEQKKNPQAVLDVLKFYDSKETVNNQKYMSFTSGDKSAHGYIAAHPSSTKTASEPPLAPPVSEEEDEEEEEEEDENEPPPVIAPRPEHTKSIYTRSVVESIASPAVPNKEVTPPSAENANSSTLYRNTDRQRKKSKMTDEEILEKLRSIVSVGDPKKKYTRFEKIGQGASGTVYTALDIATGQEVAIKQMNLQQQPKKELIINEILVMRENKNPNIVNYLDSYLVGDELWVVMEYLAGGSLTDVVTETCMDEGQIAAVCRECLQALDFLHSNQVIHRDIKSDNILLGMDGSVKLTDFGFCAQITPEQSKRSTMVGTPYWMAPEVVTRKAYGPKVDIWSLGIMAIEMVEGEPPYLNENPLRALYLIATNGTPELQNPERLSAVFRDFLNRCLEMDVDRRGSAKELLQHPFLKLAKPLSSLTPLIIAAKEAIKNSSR
T3 sequence (Q16584 whole entry): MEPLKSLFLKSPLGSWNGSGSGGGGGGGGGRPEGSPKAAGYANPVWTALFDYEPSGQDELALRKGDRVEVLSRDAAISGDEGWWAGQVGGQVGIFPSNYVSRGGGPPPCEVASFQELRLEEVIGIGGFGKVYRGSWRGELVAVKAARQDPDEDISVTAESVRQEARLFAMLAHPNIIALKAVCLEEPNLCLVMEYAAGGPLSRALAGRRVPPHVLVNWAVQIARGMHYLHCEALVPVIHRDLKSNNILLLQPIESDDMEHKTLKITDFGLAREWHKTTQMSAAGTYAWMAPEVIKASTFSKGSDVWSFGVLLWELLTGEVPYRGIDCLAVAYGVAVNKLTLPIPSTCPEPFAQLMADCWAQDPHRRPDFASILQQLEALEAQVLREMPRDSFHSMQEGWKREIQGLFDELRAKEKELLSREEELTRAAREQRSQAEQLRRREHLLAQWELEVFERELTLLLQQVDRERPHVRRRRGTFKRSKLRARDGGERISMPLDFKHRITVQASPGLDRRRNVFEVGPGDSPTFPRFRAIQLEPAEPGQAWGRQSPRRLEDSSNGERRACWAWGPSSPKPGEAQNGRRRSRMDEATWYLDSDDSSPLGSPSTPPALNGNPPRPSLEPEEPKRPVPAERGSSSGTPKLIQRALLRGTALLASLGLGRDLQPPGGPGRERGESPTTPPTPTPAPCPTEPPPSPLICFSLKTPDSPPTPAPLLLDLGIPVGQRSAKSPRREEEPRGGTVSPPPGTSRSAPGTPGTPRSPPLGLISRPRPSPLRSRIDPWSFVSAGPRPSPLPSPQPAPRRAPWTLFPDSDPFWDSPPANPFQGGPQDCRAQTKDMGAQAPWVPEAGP
T4 sequence (Q13164 whole entry): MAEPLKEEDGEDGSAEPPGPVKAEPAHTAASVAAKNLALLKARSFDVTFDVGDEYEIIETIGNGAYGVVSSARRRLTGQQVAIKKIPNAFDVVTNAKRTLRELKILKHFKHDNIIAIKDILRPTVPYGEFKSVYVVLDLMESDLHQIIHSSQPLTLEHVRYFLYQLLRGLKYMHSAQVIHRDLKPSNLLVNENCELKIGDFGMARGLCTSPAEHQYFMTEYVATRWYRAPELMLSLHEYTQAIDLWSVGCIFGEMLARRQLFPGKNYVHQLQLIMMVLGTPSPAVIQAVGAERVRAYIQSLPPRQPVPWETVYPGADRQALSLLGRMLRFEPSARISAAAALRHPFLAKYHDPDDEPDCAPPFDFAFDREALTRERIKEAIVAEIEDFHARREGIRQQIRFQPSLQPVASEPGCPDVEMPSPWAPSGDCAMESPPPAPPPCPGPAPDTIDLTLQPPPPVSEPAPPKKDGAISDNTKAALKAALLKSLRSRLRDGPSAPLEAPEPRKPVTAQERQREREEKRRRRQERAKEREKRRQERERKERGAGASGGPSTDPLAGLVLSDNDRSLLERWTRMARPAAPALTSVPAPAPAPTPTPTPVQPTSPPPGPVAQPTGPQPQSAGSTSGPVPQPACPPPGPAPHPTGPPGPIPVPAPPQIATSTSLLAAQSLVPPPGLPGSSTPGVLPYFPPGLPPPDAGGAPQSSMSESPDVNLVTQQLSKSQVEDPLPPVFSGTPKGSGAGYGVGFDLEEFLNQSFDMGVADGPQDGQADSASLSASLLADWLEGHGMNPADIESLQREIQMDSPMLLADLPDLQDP
T2 sequence (Q6DT37 whole entry): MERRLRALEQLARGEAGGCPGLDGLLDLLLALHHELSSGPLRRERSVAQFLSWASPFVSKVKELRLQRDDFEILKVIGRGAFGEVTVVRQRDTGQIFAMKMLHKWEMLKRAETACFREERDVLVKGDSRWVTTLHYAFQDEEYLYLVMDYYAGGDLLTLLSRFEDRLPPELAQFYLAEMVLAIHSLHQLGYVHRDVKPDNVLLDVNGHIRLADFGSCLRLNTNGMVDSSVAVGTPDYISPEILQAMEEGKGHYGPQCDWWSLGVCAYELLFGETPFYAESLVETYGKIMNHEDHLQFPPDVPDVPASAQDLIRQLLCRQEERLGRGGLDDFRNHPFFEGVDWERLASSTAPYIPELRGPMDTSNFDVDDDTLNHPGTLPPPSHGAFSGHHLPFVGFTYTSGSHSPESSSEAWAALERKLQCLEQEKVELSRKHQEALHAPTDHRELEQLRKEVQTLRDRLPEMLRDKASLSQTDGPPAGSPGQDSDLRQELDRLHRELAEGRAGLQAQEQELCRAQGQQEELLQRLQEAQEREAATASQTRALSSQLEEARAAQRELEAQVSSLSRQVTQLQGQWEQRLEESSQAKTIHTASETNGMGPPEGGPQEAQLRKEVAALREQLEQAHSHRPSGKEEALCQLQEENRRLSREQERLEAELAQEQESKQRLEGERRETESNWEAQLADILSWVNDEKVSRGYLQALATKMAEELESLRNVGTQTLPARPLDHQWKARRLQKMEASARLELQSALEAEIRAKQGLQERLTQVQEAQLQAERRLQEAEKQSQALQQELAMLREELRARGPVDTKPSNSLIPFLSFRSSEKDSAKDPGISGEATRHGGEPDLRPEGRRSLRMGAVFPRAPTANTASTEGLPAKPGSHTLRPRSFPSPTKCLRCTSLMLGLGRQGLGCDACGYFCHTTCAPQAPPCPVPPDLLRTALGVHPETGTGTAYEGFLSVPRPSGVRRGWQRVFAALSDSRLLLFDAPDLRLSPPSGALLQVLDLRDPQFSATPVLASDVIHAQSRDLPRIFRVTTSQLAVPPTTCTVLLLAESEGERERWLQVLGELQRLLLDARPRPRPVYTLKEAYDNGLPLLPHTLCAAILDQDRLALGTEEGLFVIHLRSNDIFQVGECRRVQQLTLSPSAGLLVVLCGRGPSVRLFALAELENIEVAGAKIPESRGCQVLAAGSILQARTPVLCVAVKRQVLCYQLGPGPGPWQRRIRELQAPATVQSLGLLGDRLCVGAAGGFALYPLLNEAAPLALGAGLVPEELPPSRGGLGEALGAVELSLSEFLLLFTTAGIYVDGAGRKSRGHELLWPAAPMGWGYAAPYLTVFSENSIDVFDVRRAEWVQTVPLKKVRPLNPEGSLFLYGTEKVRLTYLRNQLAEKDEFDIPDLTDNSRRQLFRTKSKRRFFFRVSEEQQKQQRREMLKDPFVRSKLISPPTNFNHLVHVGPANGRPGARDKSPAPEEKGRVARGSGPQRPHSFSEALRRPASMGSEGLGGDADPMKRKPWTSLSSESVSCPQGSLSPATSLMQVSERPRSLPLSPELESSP

C=CC(=O)Nc1cc(-n2c(=O)ccc3cnc4ccc(-n5cccn5)cc4c32)ccc1C [CHMFL-BTK-11]
remaining binding at 1 µM (CTK): 65%
remaining binding at 1 µM (DMPK2): 99%
remaining binding at 1 µM (AAK1): 62%
remaining binding at 1 µM (MLK3): 100%
remaining binding at 1 µM (MAP3K15): 80%
remaining binding at 1 µM (HIPK1): 79%
remaining binding at 1 µM (EGFR(L858R,T790M)): 42%
remaining binding at 1 µM (PLK3): 100%
remaining binding at 1 µM (ERK5): 100%
remaining binding at 1 µM (JNK1): 72%
remaining binding at 1 µM (ADCK3): 96%
remaining binding at 1 µM (CDC2L1): 100%
remaining binding at 1 µM (QSK): 92%
remaining binding at 1 µM (PLK4): 56%
remaining binding at 1 µM (MET): 100%
remaining binding at 1 µM (ERBB3): 90%
remaining binding at 1 µM [1]: 100%
remaining binding at 1 µM (PAK3): 94%
remaining binding at 1 µM (GSK3B): 100%
remaining binding at 1 µM (EGFR(G719S)): 88%
remaining binding at 1 µM (NEK9): 100%
remaining binding at 1 µM (STK16): 91%
remaining binding at 1 µM (SNRK): 94%
remaining binding at 1 µM (DLK): 100%
remaining binding at 1 µM (PRKX): 100%
